This is an account of results in US3932664A, “Substituted phenoxyalkyl quaternary ammonium compounds as antiarrhythemic agents” (priority 1974, dated 1976).

In general, LD50 refers to the dose at which mortality reaches 50%. A high value points to lower toxicity.

In data set [1] the test system is multifocal ventricular arrhythmias induced by n-hexane and epinephrine in dogs. Nature of the data set: protection against multifocal ventricular arrhythmias induced by n-hexane and epinephrine in dogs. The data set is classed as in vivo. The conditions noted are these: dog, intravenous. The source says:
[2-(4-Amino-2,6-dibromophenoxy)ethyl]dimethyl-(2-methylallyl)ammonium chloride is employed to alleviate multifocal ventricular arrhythmias induced by administration of n-hexane and epinephrine. In these operations, dogs are anesthetized by intravenous administration of 30 milligrams of pentobarbital sodium per kilogram. Transient ventricular arrhythmias are induced by a modification of the method of Garb and Chenowith, J. Pharmacol. Exp. Ther. 94; 12 (1948) in which the heart is sensitized by intratracheal injection of 0.04 milliliter of n-hexane per kilogram, followed in 15 seconds by rapid intravenous administration of 1-epinephrine bitrate at a dosage rate of 10 micrograms per kilogram. Such procedure produces a transient arrhythmia lasting about 10 seconds. Duration of protection by a test compound is evaluated by repeating the n-hexane and epinephrine challenge periodically and monitoring electrocardiogram and arterial blood pressure. […] When the same compound is administered at a dosage rate of 2 milligrams per kilogram, the duration of protection is found to be greater than 2 hours.
In similar operations, dosages of 5 to 10 milligrams per kilogram are found to be required to obtain similar antiarrhythmic effects when the known antiarrhythmic agent, quinidine sulfate, is employed as a test compound.

Data set [2] can be described thus: acute oral toxicity in rats. The conditions noted are these: rat, in vivo, single oral dose. The protocol:
(§1) An aqueous solution of [2-(4-amino-2,6-dibromophenoxy)ethyl]dimethyl (2-methylallyl)ammonium chloride is administered orally to several groups of male and female Sprague-Dawley derived rats and male and female Swiss mice (Cox strain). The compound is administered as single oral dosages in varying amounts, and the animals are held to assess toxicity twenty-four hours after administration of the compound.

Data set [3] concerns ouabain-induced ventricular tachycardia in dogs. As to the kind of experiment: conversion of ouabain-induced ventricular tachycardia to normal sinus rhythm in anesthetized dogs. The format is in vivo, dog. The conditions noted are these: intravenous; for mean duration of sinus rhythm: group of three dogs. The source says:
Ventricular tachycardia is produced in dogs in a method similar to the method of Lucchesi and Hardman (J. Pharmacol. Exptl. Therap., 132, 372, 1961) by the administration of ouabain. In such operations, a dog is anesthetized by the intravenous administration of pentobarbital sodium at a dosage rate of 30 milligrams per kilogram. A femoral artery is cannulated with polyethylene tubing for measurements of blood pressure. A femoral vein is similarly cannulated for administration of ouabain and administration of the test compound. Hypodermic needle electrodes are employed for recording electrocardiograms. In such operations, ouabain is administered intravenously by infusion at a constant rate via the cannulated femoral vein. The infusion rate is 35 micrograms of ouabain per kilogram of animal body weight per hour. Within 1 to 1.5 hours following the start of the infusion, a ventricular tachycardia is seen to develop.
After ventricular tachycardia is observed, a test compound is administered intravenously by administration of varying amounts of a composition comprising 50 milligrams of the test compound as a sterile solution in 10 milliliters of water containing 0.9 percent sodium chloride. Each dose is administered slowly over a period of 15 to 30 seconds. The compound is administered at an initial dosage rate of 0.25 milligram of test compound per kilogram of animal body weight. Blood pressure and electrocardiogram are observed for 5 minutes after administration. When a complete conversion from the arrhythmic condition to normal sinus rhythm is not observed within the 5 minute period, a second dose of 0.50 milligram of the test compound per kilogram is administered by a similar procedure and blood pressure and heartbeat are similarly observed for 5 minutes. When complete conversion of the ventricular tachycardia to normal sinus rhythm is not observed, the dosage is increased two-fold every five minutes until complete conversion is obtained. The animal is then observed and the duration of the period of normal cardiac rhythm produced by administration of the test compound is recorded as the duration of antiarrhythmic activity. The termination of the period of normal activity is marked by the reappearance of ventricular tachycardia or fibrillation as indicated by the electrocardiogram observations. The antiarrhythmic dosage of test compound sufficient to bring about a complete conversion of the cuabain-induced tachycardia, and the duration of the period of normal cardiac activity are set out below.
The procedure of Example 26 is repeated, employing the compound of Example 1, [ 2-(4-amino-2,6-dibromophenoxy)-ethyl]-dimethyl(2-methylallyl)ammoniumchloride, as a test compound. In these operations two groups of three dogs each are administered the test compound intravenously at anti-arrhythmic dosage rates of 1 and 2 milligrams per kilogram after ectopic ventricular rhythms have been established by continuous infusion of cuabain.

Data set [4] is described as follows: blood and heart levels in rabbits after oral and intravenous administration. The format is in vivo. Conditions: rabbit.
Data set [5] is described as follows: acute oral toxicity in mice. The conditions noted are these: mouse, in vivo, single oral dose. How it is done: as §1
For data set [6], the system named is electrically induced ventricular fibrillation in dogs. Nature of the data set: threshold for electrically induced ventricular fibrillation in electrically paced dogs. The format is in vivo, dog. Conditions: intravenous.

For `C=C(C)C[N+](C)(C)CCOc1c(Br)cc(N)cc1Br.[Cl-]` [Example 1, [2-(4-amino-2,6-dibromophenoxy)ethyl]-dimethyl(2-methylallyl)ammonium chloride], the duration of protection entry in data set [1] (2 mg/kg) is “greater than 2 hours”. For the same molecule, the “duration of antiarrhythmic effect” value in data set [1] (one mg/kg) was “about 1 hour”. Further, the “protection against the arrhythmias” value in data set [1] (one mg/kg) was “excellent protection”. Moreover, the 50% lethal dose (LD50) at 24 h in data set [2] (female rats) is 725 mg/kg; in data set [2] (male rats), 758 mg/kg; in data set [5] (female mice) it was 550 mg/kg; in data set [5] (male mice), 560 mg/kg. In addition, in data set [3] (Canis lupus familiaris, iv, dog, dose giving complete conversion of ouabain-induced tachycardia to normal sinus rhythm, read-out: Conversion Dose), the minimal effective dose came out at 0.5 mg/kg. In addition, in data set [3] (dog, at conversion dose 0.5 mg/kg), the “Duration (period of normal cardiac rhythm)” value is 15 min. Further, the results for the “mean duration of sinus rhythm” value in data set [3] (1 mg/kg) and in data set [3] (2 mg/kg) were 12.7 min and 26.5 min, respectively. Also, the “conversion of the arrhythmias to sinus rhythm” value in data set [3] (two groups of three dogs, 1 and 2 mg/kg) is “Complete conversion of the arrhythmias to sinus rhythm is observed in all the dogs”. Besides, the oral absorption result in data set [4] was “indicate oral absorption”. Also, the “increase in threshold for electrically induced ventricular fibrillation” value in data set [6] was “substantial increases”.
